In article PMC4624630, “Enzymatic Synthesis of Rhamnose Containing Chemicals by Reverse Hydrolysis” (PLoS ONE, 2015):

Target: T1, RhaL1 (α-L-rhamnosidase from Alternaria sp. L1) (Alternaria sp. L1, UniProt H6UY33)
T1 construct: recombinant, secreted from Pichia pastoris GS115 (vector pPIC9K, SnaBI/NotI), N-glycosylated; about 120 kDa on SDS-PAGE, about 85 kDa after PNGase F
T1 sequence (H6UY33 20-681): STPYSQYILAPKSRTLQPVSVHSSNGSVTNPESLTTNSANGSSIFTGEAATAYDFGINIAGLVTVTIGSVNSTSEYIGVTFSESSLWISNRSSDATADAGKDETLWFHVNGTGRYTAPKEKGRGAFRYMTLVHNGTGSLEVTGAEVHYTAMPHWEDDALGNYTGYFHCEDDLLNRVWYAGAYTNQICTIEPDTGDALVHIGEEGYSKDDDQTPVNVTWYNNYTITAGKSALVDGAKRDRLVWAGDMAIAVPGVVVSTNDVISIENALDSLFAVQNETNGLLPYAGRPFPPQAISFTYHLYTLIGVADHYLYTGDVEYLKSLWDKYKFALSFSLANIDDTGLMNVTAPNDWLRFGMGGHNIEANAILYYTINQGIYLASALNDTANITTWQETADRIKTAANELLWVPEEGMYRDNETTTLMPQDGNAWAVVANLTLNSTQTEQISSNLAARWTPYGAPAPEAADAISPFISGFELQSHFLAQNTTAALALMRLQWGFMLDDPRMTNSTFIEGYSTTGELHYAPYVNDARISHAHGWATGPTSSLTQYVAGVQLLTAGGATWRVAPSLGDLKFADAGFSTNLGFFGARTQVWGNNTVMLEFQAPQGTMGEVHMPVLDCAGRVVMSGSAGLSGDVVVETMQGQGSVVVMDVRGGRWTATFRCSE
Assay: reverse hydrolysis; HPLC, product by ESI-MS and NMR
Type: biochemical
Details: glycosyl donor, acceptor D-mannitol (also D-fructose, esculin); pH 6.5, 55 °C, 48 h

## C[C@@H]1OC(O)[C@H](O)[C@H](O)[C@H]1O (stereo partly drawn) [L-rhamnose]
  reverse hydrolysis; HPLC, product by ESI-MS and NMR: synthesized by the recombinant RhaL1 using L-rhamnose as the glycosyl donor and mannitol as the acceptor
